{"source": "patent US20030162781A1", "about": "“Vehicle for applying chemical compounds on wood” (priority 2001, published 2003)", "origin": "cited, not measured here", "conditions": "water as carrier"}
{"smiles": "O", "note": "[Water]", "values": [{"measurement": "wood penetration", "value": "scarcely penetrates the wood"}]}
